In patent publication US20040029100A1, “Rapid screen to identify p-glycoprotein substrates and high affinity modulators” (priority 2000, published 2004):
Read-outs that look alike come from different tables or passages of the source. Square brackets hold non-standard residues; d marks the D form. Peptide text beside a SMILES is read from it. * marks the point of attachment. Sta = CC(C)C[C@H](N)[C@@H](O)CC(=O)O; Isovaleryl = CC(C)CC(=O)*; Cbz = O=C(OCc1ccccc1)*; Boc = CC(C)(C)OC(=O)*; OBn = c1ccc(CO*)cc1; OtBu = CC(C)(C)O*

Assays:
P-glycoprotein (Pgp) = P-glycoprotein (Pgp) (Cricetulus griseus, UniProt P21448); test: in vitro; conditions: Chinese hamster, Kd2
Chain of P-glycoprotein (Pgp) (P21448 whole entry): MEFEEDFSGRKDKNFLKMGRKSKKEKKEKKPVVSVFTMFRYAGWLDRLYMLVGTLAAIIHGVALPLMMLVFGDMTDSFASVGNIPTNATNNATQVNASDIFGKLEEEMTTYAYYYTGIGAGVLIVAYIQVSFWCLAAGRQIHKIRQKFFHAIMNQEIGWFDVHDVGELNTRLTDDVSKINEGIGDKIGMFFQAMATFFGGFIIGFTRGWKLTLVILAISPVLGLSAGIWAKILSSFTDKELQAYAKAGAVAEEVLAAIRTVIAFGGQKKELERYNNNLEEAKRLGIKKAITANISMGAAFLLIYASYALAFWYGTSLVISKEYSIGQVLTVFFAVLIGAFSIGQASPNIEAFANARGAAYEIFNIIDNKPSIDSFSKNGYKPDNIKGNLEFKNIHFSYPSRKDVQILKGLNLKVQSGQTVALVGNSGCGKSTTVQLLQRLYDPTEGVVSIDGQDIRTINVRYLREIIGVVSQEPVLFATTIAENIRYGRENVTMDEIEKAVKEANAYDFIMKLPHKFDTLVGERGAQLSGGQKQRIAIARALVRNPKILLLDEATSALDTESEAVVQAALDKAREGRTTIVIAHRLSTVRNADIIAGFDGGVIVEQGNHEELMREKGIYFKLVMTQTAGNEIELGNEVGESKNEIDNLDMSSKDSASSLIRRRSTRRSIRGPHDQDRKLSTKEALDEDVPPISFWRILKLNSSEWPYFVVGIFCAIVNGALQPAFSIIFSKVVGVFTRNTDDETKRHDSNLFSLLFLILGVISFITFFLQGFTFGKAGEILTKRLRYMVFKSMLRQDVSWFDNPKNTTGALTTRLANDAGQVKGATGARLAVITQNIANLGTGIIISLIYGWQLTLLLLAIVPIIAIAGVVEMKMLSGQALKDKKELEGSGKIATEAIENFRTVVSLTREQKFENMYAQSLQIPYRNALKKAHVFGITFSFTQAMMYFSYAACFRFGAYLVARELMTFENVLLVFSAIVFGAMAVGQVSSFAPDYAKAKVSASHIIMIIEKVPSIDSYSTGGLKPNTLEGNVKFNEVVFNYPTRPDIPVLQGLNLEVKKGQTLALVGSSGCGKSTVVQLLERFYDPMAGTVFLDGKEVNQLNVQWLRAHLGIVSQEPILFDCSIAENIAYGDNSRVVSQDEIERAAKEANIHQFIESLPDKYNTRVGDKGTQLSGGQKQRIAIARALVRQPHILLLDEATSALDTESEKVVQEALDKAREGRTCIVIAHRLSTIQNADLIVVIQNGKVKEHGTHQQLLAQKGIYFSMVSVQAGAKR
Experimental: (§1) Purification of Pgp. Pgp was purified from plasma membrane of MDR CH^RB30 cells by a modification of the method previously described for CH^RC5 (27). […] Contaminating glycoproteins were removed from the S2 fraction by passing through a concanavalinA-Sepharose 4B column (Pharmacia) equilibrated with 2 mM CHAPS buffer. […] The Pgp preparation was kept on ice and used within 24 h.
(§2) Steady-state Fluorescence Measurements. Steady-state fluorescence measurements were performed using a Spex Model DM3000 spectrofluorimeter (Spex Industries Inc., Edison, N.J.) at 22° C., with excitation and emission bandpass set to 4 nm. Most fluorescence studies were carried out on solutions of 100 μg/mL Pgp in 2 mM CHAPS buffer, in the presence of 0.5 mg/mL of the phospholipid PMPC (Avanti Polar Lipids, Alabaster, Ala.). PMPC was added as extruded 100 nm unilamellar vesicles (8). With some drugs, the use of a lipid was not required for the fluorescence measurements. The excitation and emission spectra were the average of three scans, and were corrected by subtracting control scans with the same phospholipid buffer in the absence of protein.
(§3) Quenching Studies using TNP-Nucleotide Derivatives and Drugs. […] Working solutions of TNP-derivatives, and non-peptide drugs and modulators were also prepared in 2 mM CHAPS with 0.5 mg/mL PMPC vesicles, whereas peptide-based drugs and modulators were dissolved in dimethylsulfoxide (DMSO). […] Quenching experiments were performed by successively adding 5 μL aliquots of TNP-derivatives or drug solution to 500 μL of Pgp solution in a 0.5 cm quartz cuvette. After each addition, the sample was excited at 290 nm and the steady-state fluorescence emission was measured at 330 nm. Fluorescence intensities were corrected for dilution, scattering, and the inner filter effect as described elsewhere (8). Control titrations were performed with 30 μM NATA to assess the non-specific quenching of Trp fluorescence by TNP-nucleotide derivatives and drugs.
(§4) The experimental quenching data were computer-fitted to the following equation as described previously (8)(9): [formula]
(§5) where (ΔF/F0 100) is the percent quenching (percent change in fluorescence relative to the initial value), following addition of substrate at a concentration [S], and Kd is the dissociation constant. Fitting was carried out using nonlinear regression with the Marquardt-Levenberg algorithm (SigmaPlot, SPSS Inc., Chicago, Ill.), and values of Kd and (ΔFmax/F0 100) were extracted. For biphasic titration curves, each section of the binding curve was fitted to the above equation separately, as described previously (32).

[1] = biological target: T1, P-glycoprotein (Pgp) purified from MDR CH^RB30 Chinese hamster ovary cells (Cricetulus griseus, UniProt P21448); test: Quenching of intrinsic Trp fluorescence of purified Pgp by nucleotides, drugs and peptides; conditions: for ΔFmax: maximal quenching reached at saturation
T1 sequence (P21448 whole entry): as above
Experimental: as §1, §2, §3, §4, §5

[2] = biological target: T1, P-glycoprotein (Pgp) purified from MDR CH^RB30 Chinese hamster ovary cells; test: Trp fluorescence lifetime of purified Pgp in presence of nucleotides and drugs; design: Pgp was purified from plasma membrane of MDR CH^RB30 cells; endogenous in cells; host or cells: MDR CH^RB30 Chinese hamster ovary cells (plasma membrane, CHAPS extraction, concanavalin A-Sepharose pass-through); conditions: Pgp Trp decay, concentration of substance
Experimental: as §1
Fluorescence Lifetime Measurements. Fluorescence decays were measured with a PTI Model C-720 fluorescence lifetime instrument ((28), Photon Technology International Inc., Lawrenceville, N.J.) utilizing a proprietary stroboscopic detection technique (29). […] Fluorescence decays were analyzed with a PTI TimeMaster Pro analysis package using a discrete 1- to 4- exponential fit, 1- to 4-exponential global analysis, or lifetime distribution analysis by the Exponential Series Method (ESM) (30). The quality of fits was judged by chi-square values and weighed residuals.

[3] = maximal Trp quenching, single or higher affinity component
[4] = read-out: Kd1, single binding site or high affinity site, 100 μg/mL Pgp, 2 mM CHAPS, 0.5 mg/mL PMPC, 22° C.

Compound: CN1CCN(CCCN2c3ccccc3Sc3ccc(C(F)(F)F)cc32)CC1 [trifluoperazine]
- Kd (P-glycoprotein (Pgp)): 16.8 ± 1.6 µM
- ΔFmax2 ([1]; maximal Trp quenching, lower affinity component): 67.7 ± 4.1%
- ΔFmax1 [1, 3]: 18.9 ± 0.87%
- <tav> (amplitude average lifetime) [2]: 2.15 ns
- a1 (pre-exponential value) [2]: 0.72
- a2 (pre-exponential value) [2]: 0.35
- t1 (fluorescence lifetime) [2]: 1.1 ns
- t2 (fluorescence lifetime) [2]: 4.3 ns

Compound: CCCCCCCCCCCCCCCCCCOP(=O)([O-])OC1CC[N+](C)(C)CC1 [D21266]
- ΔFmax1 [1, 3]: 13.0 ± 1.15%
- Kd [1, 4]: 20.1 ± 3.4 µM

Compound: CCCCCCCCCCCCCCCCCCOP(=O)(O)OCC[N+]1(C)CCCCC1 [D-20133]
- ΔFmax1 [1, 3]: 12.3 ± 0.89%
- Kd [1, 4]: 12.8 ± 2.1 µM

Compound: tetramethylrosamine
- ΔFmax1 [1]: 21.0 ± 3.3%
- ΔFmax2 [1]: 32.8 ± 0.88%
- <tav> (amplitude average lifetime) [2]: 3.9 ns
- a1 (pre-exponential value) [2]: 2.43
- a2 (pre-exponential value) [2]: 1.1
- t1 (fluorescence lifetime) [2]: 0.55 ns

Compound: COC(=O)[C@H](CCCCNC(=O)[C@H](CCC(=O)OCc1ccccc1)NC(=O)OC(C)(C)C)NC(=O)[C@H](CCC(=O)OCc1ccccc1)NC(=O)OC(C)(C)C [reversin 205]
- Kd ([1]; Kd1): 0.37 ± 0.037 µM
- ΔFmax1 [1, 3]: 5.41 ± 0.13%

Compound: Nc1ncnc2c1ncn2[C@@H]1O[C@H](COP(=O)([O-])OP(=O)([O-])O)[C@@H](O)[C@H]1O.[Na+].[Na+] [ADP, disodium-ADP]
- ΔFmax1 [1, 3]: 9.46%
- ΔFmax [1]: ~10%
- Kd [1, 4]: 330 µM
- Kd ([1]; single type of binding site): ~300 µM

Compound: CC(C)CC(=O)N[C@H](C(=O)N[C@H](C(=O)N[C@@H](CC(C)C)[C@@H](O)CC(=O)N[C@@H](C)C(=O)N[C@@H](CC(C)C)[C@@H](O)CC(=O)O)C(C)C)C(C)C [pepstatin A] (Isovaleryl-VV[Sta]A[Sta]-OH)
- Kd ([1]; Kd1, single binding site or high affinity site, 100 μg/mL Pgp, 2 mM CHAPS, 0.5 mg/mL PMPC, 22° C.): 9.53 ± 0.78 µM
- ΔFmax1 [1, 3]: 4.46 ± 0.073%

Compound: COc1cc2c(c(OC)c1OC)-c1ccc(OC)c(=O)cc1[C@@H](NC(C)=O)CC2 [colchicine]
- ΔFmax1 [1, 3]: 102.2 ± 5.7%
- <tav> (amplitude average lifetime) [2]: 2.63 ns
- a1 (pre-exponential value) [2]: 0.66
- a2 (pre-exponential value) [2]: 0.39
- t1 (fluorescence lifetime) [2]: 1.4 ns
- t2 (fluorescence lifetime) [2]: 4.7 ns

Compound: C=C[C@H]1C[N@@]2CC[C@H]1C[C@H]2[C@H](O)c1ccnc2ccc(OC)cc12 [quinine]
- ΔFmax1 [1]: 33.5 ± 2.2%

Compound: Nc1ncnc2c1ncn2[C@@H]1O[C@H](COP(=O)(O)OP(=O)([O-])OP(=O)([O-])O)[C@@H](O)[C@H]1O.[Na+].[Na+] [ATP, disodium-ATP]
- ΔFmax1 [1, 3]: 10.4%
- ΔFmax [1]: ~10%
- Kd [1, 4]: 280 µM
- Kd ([1]; single type of binding site): ~300 µM

Compound: CC(C)(C)OC(=O)N[C@@H](CC(=O)OCc1ccccc1)C(=O)N[C@@H](CCCCNC(=O)OCc1ccccc1)C(=O)OC(C)(C)C [reversin 201] (Boc-Asp(OBn)-Lys(Cbz)-OtBu; N-terminus and C-terminus assumed)
- Kd ([1]; Kd1): 0.23 ± 0.02 µM

Compound: COc1cccc2c1C(=O)c1c(O)c3c(c(O)c1C2=O)C[C@@](O)(C(C)=O)C[C@@H]3O[C@H]1C[C@H](N)[C@H](O)[C@H](C)O1 [daunorubicin]
- Kd (P-glycoprotein (Pgp)): 10.7 ± 1.7 µM
- Kd [1]: 2.97 ± 0.38 µM
- ΔFmax1 [1]: 22.7 ± 1.3%
- ΔFmax2 [1]: 38.2 ± 2.4%
- <tav> (amplitude average lifetime) [2]: 2.61 ns
- a1 (pre-exponential value) [2]: 0.71
- a2 (pre-exponential value) [2]: 0.52
- t1 (fluorescence lifetime) [2]: 1.3 ns
- t2 (fluorescence lifetime) [2]: 4.4 ns
